Data as given in patent publication US20220332699A1 (SAGE THERAPEUTICS, INC., priority 2019, published 2022).

What was measured:
[1] = Compound stability in cryopreserved human hepatocytes; type: in vitro ADME; conditions: pooled cryopreserved human hepatocytes, read-out: Human Hep Clint
Protocol: Pooled cryopreserved human hepatocytes from 10 donors were obtained from BioreclamationIVT (Cat No. X008001, Lot MMN). Test compounds (20 μL of 1 mM stock solution in DMSO) and control compounds 7-ethoxycoumarin and 7-hydroxycoumarin (20 μL of 3 mM stock solutions in DMSO) were diluted with 380 μL of 45% MeOH/H2O to obtain 50 μM solutions of test compound and 150 μM solutions of control compounds. Then 50 μL of these respective solutions were mixed with 450 μL of pre-warmed Williams' Medium E to obtain 5 μM test compound and 15 μM control compound solutions; and in duplicate 10 μL of these solutions were added to appropriate wells in a 96-well plate corresponding to incubation times T0, T15, T30, T60 and T90 and kept at 37° C. Cryopreserved human hepatocytes were thawed, isolated and suspended in Williams' Medium E, then diluted with pre-warmed William' Medium E to a concentration of 0.625×10^6 cells/mL. The reaction was started by aliquoting 40 μL of the hepatocytes into the 96-well plates containing 10 μL of the test and control compounds and incubated at 37° C. with 5% CO2. Stop solution (acetonitrile containing 200 ng/mL tolbutamide and labetalol as internal standards) was added at the requisite time (15, 30, 60, or 90 minutes). Hepatocytes were not added to the T0 samples, which were rather directly treated with stop solution. Medium control (MC) sample plates (T0-MC and T90-MC) were incubated in identical fashion as for the test samples, but without addition of hepatocytes and stop solution was added at the requisite times. The plates were vortexed immediately after addition of stop solution and placed on a plate shaker at 500 rpm for 10 min, then centrifuged at 3220×g for 20 min. The supernatants were transferred to 96-deep-well plates, sealed and stored at 4° C. until LC-MS-MS analysis. The concentration of compound remaining was determined by LC-MS-MS and plotted versus time. […]
Cutoff values determined by the hepatocyte stability assay are in Table 2 below: […]

CYP46A1 = CYP46A1 (Homo sapiens, UniProt Q9Y6A2); assay: CYP46A1 Enzyme Assay 2 (testosterone substrate, HPLC-MS); type: biochemical; conditions: read-out: IC50 (CYP46A1 inhibitory activity)
Chain of CYP46A1 (Q9Y6A2 whole entry): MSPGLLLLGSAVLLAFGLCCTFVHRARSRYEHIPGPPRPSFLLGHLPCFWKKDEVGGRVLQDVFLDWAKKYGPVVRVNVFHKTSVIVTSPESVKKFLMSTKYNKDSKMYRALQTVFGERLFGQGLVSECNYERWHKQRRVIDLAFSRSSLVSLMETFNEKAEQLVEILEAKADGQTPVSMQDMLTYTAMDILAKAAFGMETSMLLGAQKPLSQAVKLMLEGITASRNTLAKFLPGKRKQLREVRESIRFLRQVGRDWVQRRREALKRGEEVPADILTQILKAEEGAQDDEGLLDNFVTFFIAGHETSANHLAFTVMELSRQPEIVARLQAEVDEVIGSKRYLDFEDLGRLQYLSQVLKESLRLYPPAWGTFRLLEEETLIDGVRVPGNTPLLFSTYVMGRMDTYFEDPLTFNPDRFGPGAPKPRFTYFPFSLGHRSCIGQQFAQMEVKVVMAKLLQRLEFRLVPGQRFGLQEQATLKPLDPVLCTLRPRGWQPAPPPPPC
Summary of the method: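 CYP46A1 (5 μM final) with testosterone ([…] final) preincubated with compound 30 min at 37° C, reaction started with NADPH-generating system and run 15 min at 37° C. Quenched in methanol containing diclofenac internal standard; product read by HPLC-MS.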

P-gp (MDR1) = assay: Compound permeability and efflux across a MDCK-MDR1 cellular membrane; type: in vitro ADME, canine; conditions: dog, pH 7.4, MDCK-MDR1 cell monolayer; for Papp A→B at 2.5 h, 2 µM: A to B; for efflux ratio at 2.5 h, 2 μM: read-out: MDCK Effux Ratio (B:A/A:B)
Protocol: MDR1-MDCKII cells (obtained from Piet Borst at the Netherlands Cancer Institute) were seeded onto […] (PET) in 96-well BD insert systems at 2.5×10^5 cells/mL and grown for 4-7 days until confluent cell monolayer formation.
Transport buffer for test compound was HBSS with 10 mM Hepes (pH 7.4±0.05) with or without 1% BSA and with or without GF120918. Transport buffer for reference compound was HBSS with 10 mM Hepes (pH 7.4±0.05) with or without GF120918. Test and reference compounds (digoxin, nadolol and metoprolol) were diluted with transport buffer from stock solution to a concentration of 2 μM (DMSO<1%) and applied to the apical or basolateral side of the cell monolayer. Permeation of the test compounds from A to B direction or B to A direction was determined in triplicate with and without P-gp inhibitor (GF120918, 10 μM). Digoxin was tested at 10 μM in the presence or absence of 10 μM GF120918 bi-directionally as well, while nadolol and metoprolol were tested at 2 μM in the absence of GF120918 in A to B direction in duplicate. The plate was incubated for 2.5 h in a CO2 incubator at 37±1° C., with 5% CO2 at saturated humidity without shaking. Test and reference compounds were quantified by LC/MS/MS analysis based on the peak area ratio of analyte/IS.
Six wells per 96-well plate were selected for the lucifer yellow rejection assay to determine the cell monolayer integrity. Thus, 75 μL of 100 μM lucifer yellow in transport buffer and 250 μL transport buffer were added to apical and basolateral chambers, respectively. The plate was incubated for 150 min at 37° C. with 5% CO2 and 95% relative humidity without shaking. After 150 minutes incubation, 20 μL of lucifer yellow samples were taken from the apical sides, followed by the addition of 60 μL of Transport Buffer, and then 80 μL of lucifer yellow samples were taken from the basolateral sides. The relative fluorescence unit (RFU) of lucifer yellow was measured at 425/528 nm (excitation/emission) with a Envision plate reader.
The apparent permeability coefficient Papp (cm/s) was calculated using the equation: […]
wherein dCr/dt is the cumulative concentration of compound in the receiver chamber as a function of time (μM/s); Vr is the solution volume in the receiver chamber (0.075 mL on the apical side, 0.25 mL on the basolateral side); A is the surface area for the transport, i.e. 0.0804 cm^2 for the area of the monolayer; C0 is the initial concentration in the donor chamber (μM).
The efflux ratio was calculated using the equation:
Efflux Ratio=Papp(BA)/Papp(AB)

Mouse pharmacokinetics = type: in vivo; conditions: 30 mg/kg PO
Protocol: Compound A6 was evaluated in a mouse pharmacokinetics (PK) study. The compound was dosed at 30 mg/kg PO to 3 male CD-1 mice, formulated as a solution in 30% hydroxypropyl beta-cyclodextran, with a dosing volume of 5 ml/kg. Plasma samples were collected at 0.25, 0.50, 1.0, 2.0, 4.0, 8.0 and 24 h post-dose. In 2 separate groups with 3 mice/group, Compound A6 was dosed at 30 mg/kg, PO and plasma and brain samples were collected at 0.5 and 2.0 h post-dose. […] The brain to plasma ratio at 0.25 and 2.0 h was 0.39 and 0.41, respectively.

CLint scaled at 1 µM [1]	IC50 (CYP46A1)	Papp A→B at 2.5 h, 2 µM (P-gp (MDR1))	efflux ratio at 2.5 h, 2 μM (P-gp (MDR1))	Kp at 0.25 h (Mouse pharmacokinetics; CD-1, mouse, brain and plasma, mice, at 0.25 h, read-out: brain to plasma ratio)	Kp at 2 h (Mouse pharmacokinetics; CD-1, mouse, brain and plasma, mice, at 2.0 h, read-out: brain to plasma ratio)	AUC (Mouse pharmacokinetics; mouse, male CD-1 mice, plasma)	Cmax (Mouse pharmacokinetics; mouse, male CD-1 mice, plasma)	half-life (Mouse pharmacokinetics; mouse, male CD-1 mice, plasma)	Compound
< 18 mL/min/kg	< 100 nM	28 ×10⁻⁶ cm/s	1.2						N#CC1(Cc2ccccc2)CCN(C(=O)c2cccnc2-c2ccncc2)CC1 [Compound A32, 1-([2,4′-bipyridine]-3-carbonyl)-4-benzylpiperidine-4-carbonitrile]
< 18 mL/min/kg	< 100 nM	22 ×10⁻⁶ cm/s	1.4	0.39	0.41	14400 ng·h/mL	10700 ng/mL	57.6 min	N#CC1(Cc2ccc(F)cc2)CCN(C(=O)c2cccnc2-c2ccncn2)CC1 [Compound A6, 4-(4-fluorobenzyl)-1-(2-(pyrimidin-4-yl)nicotinoyl)piperidine-4-carbonitrile]
< 18 mL/min/kg	< 100 nM	21 ×10⁻⁶ cm/s	1.2						N#CC1(Cc2ccc(F)cc2)CCN(C(=O)c2cccnc2-c2ccncc2)CC1 [Compound A14, 1-([2,4′-bipyridine]-3-carbonyl)-4-(4-fluorobenzyl)piperidine-4-carbonitrile]
